Measurements: ChEMBL document CHEMBL1687782, “High-resolution crystal structure of the subclass B3 metallo-beta-lactamase BJP-1: rational basis for substrate specificity and interaction with sulfonamides” (Antimicrob Agents Chemother, 2010)

Assays:
[1] = tested on: Stenotrophomonas maltophilia; assay: Activity at Stenotrophomonas maltophilia 1SML metallo-beta-lactamase L1
[2] = tested on: Stenotrophomonas maltophilia; assay: Ratio of Kcat to Km for Stenotrophomonas maltophilia 1SML metallo-beta-lactamase L1
Bradyrhizobium japonicum [3] = assay: Activity at Bradyrhizobium japonicum metallo-beta-lactamase BJP-1
Fluoribacter gormanii [4] = assay: Activity at Fluoribacter gormanii 1K07 metallo-beta-lactamase FEZ-1
Bradyrhizobium japonicum [5] = assay: Ratio of Kcat to Km for Bradyrhizobium japonicum metallo-beta-lactamase BJP-1
Fluoribacter gormanii [6] = assay: Ratio of Kcat to Km for Fluoribacter gormanii 1K07 metallo-beta-lactamase FEZ-1

SMILES | Km [1] [µM] | kcat/Km [2] | Km (Bradyrhizobium japonicum [3]) [µM] | Km (Fluoribacter gormanii [4]) [µM] | kcat/Km (Bradyrhizobium japonicum [5]) [×10⁴ /M/s] | kcat/Km (Fluoribacter gormanii [6])
C[C@@H](O)[C@H]1C(=O)N2C(C(=O)O)=C(SCCNC=N)C[C@H]12 | 90 | 7.3 ×10⁵ /M/s | 260 | > 1000 | 6 | 2 ×10⁵ /M/s
CC1(C)S[C@@H]2[C@H](NC(=O)[C@H](C(=O)O)c3ccsc3)C(=O)N2[C@H]1C(=O)O | 140 | 2.7 ×10⁶ /M/s | – | > 5000 | – | 1.3 ×10⁴ /M/s
CCN1CCN(C(=O)N[C@@H](C(=O)N[C@@H]2C(=O)N3[C@@H]2SC(C)(C)[C@@H]3C(=O)O)c2ccccc2)C(=O)C1=O | 20 | 7 ×10⁶ /M/s | 700 | 4200 | 6.7 | 1.2 ×10⁴ /M/s
CC1(C)S[C@@H]2[C@H](NC(=O)[C@H](N)c3ccccc3)C(=O)N2[C@H]1C(=O)O | 40 | 4.4 ×10⁶ /M/s | 670 | > 5000 | 1.9 | 1.1 ×10⁴ /M/s
